Measured values taken from patent US20080009418A1, “Selective Inhibitors” (Alchemia LTD., priority 2004, published 2008).

Assays:
Human κ-Opioid (KOP) = biological target: T1, Human κ-Opioid (KOP) (Homo sapiens, UniProt P41145); test: Radioligand binding, human κ-opioid (KOP) membranes, filtration, [3H]-Diprenorphine; details: compound at 10 μM, [3H]-Diprenorphine
T1 construct: purchased Perkin Elmer Biosignal
How it was run: (§1)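 Percent inhibition of radioligand binding measured on recombinant human membranes: NK1 with [125I]-Substance P, KOP with [3H]-Diprenorphine. Incubation 1 h at room temperature, then harvest onto 0.3% PEI-soaked filters, cold Tris-HCl pH 7.4 washes and scintillation counting; non-specific binding from reference ligand wells.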

Human δ-opioid (DOP) = biological target: T2, Human δ-opioid (DOP) (Homo sapiens, UniProt P41143); test: Radioligand binding, human δ-opioid (DOP) membranes, FlashPlate, [3H]-Bremazocine; details: compound at 10 μM, [3H]-Bremazocine
T2 construct: purchased Perkin Elmer Biosignal
How it was run: (§2)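 Cloned human receptor membranes were coated onto FlashPlate wells and incubated with radioligand and compound (added from a 0.5 mM DMSO daughter plate) for 1 hour at room temperature in the dark. Scintillation counting gave percent inhibition, with DMSO defining total and reference ligand defining non-specific binding.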

Human Melanocortin (MC4) = biological target: T3, Human Melanocortin (MC4) (Homo sapiens, UniProt P32245); test: Radioligand binding, human melanocortin MC4 membranes, FlashPlate, [125I]-NDP-αMSH; details: compound at 10 μM, [125I]-NDP-αMSH
T3 construct: purchased Perkin Elmer Biosignal
How it was run: as §2

Human μ-opioid (MOP) = biological target: T4, Human μ-opioid (MOP) (Homo sapiens, UniProt P35372); test: Radioligand binding, human μ-opioid (MOP) membranes, FlashPlate, [3H]-Naloxone; details: compound at 10 μM, [3H]-Naloxone
T4 construct: purchased Perkin Elmer Biosignal
How it was run: as §2

[1] = biological target: T5, Human melanin-concentrating hormone (MCH1) (Homo sapiens, UniProt Q99705); test: Radioligand binding, human melanin-concentrating hormone MCH1 membranes, FlashPlate, [125I]-S36057; details: compound at 10 μM
T5 construct: purchased Perkin Elmer Biosignal
How it was run: as §2

Human melanocortin (MC5) = biological target: T6, Human melanocortin (MC5) (Homo sapiens, UniProt P33032); test: Radioligand binding, human melanocortin MC5 membranes, FlashPlate, [125I]-NDP-αMSH; details: compound at 10 μM, [125I]-NDP-αMSH
T6 construct: purchased Perkin Elmer Biosignal
How it was run: as §2

Mouse urotensin (mUR2) = biological target: T7, Mouse urotensin (mUR2) (Mus musculus, UniProt Q8VIH9); test: Radioligand binding, mouse urotensin mUR2 membranes, FlashPlate, [125I]-Urotensin II; details: compound at 10 μM, [125I]-Urotensin II
T7 construct: purchased Perkin Elmer Biosignal
T7 sequence (Q8VIH9 1-385): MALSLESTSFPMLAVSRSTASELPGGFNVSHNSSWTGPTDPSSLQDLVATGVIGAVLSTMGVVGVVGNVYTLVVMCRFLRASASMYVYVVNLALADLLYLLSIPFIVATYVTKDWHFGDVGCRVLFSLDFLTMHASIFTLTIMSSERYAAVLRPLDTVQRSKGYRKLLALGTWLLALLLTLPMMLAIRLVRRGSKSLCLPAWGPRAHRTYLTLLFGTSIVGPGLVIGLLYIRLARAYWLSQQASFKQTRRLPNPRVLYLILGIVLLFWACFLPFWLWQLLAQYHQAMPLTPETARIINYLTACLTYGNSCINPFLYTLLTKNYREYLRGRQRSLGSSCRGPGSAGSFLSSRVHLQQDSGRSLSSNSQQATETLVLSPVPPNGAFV
How it was run: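 Cloned mouse urotensin (mUR2) receptor membranes from Perkin Elmer Biosignal were immobilized in FlashPlate microplates using a proprietary coating. Each well got 19.5 μl buffer, then 0.5 μl of DMSO, reference ligand, or compound. Adding 5 μl of [125I]-Urotensin II, diluted to 5× final concentration in binding buffer, started binding. Plates were sealed with TopSeal-A and incubated 1 hour at room temperature in the dark. Wells were counted for 30 seconds each on a TopCount after a 60-second delay, and percentage inhibition was calculated.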

Human neurokinin (NK1) = biological target: T8, Human neurokinin (NK1) (Homo sapiens, UniProt P25103); test: Radioligand binding, human neurokinin NK1 membranes, filtration, [125I]-Substance P; details: compound at 10 μM, [125I]-Substance P
T8 construct: purchased Perkin Elmer Biosignal
How it was run: as §1

Human opioid (ORL1) = biological target: T9, Human opioid (ORL1) (Homo sapiens, UniProt P41146); test: Radioligand binding, human opioid ORL1 membranes, FlashPlate, [125I]-Nociceptin; details: compound at 10 μM, [125I]-Nociceptin
T9 construct: purchased Perkin Elmer Biosignal
How it was run: as §2

[2] = biological target: T10, Human neuropeptide Y (NPY-Y1) (Homo sapiens, UniProt P25929); test: Radioligand binding, human neuropeptide Y NPY-Y1 membranes, FlashPlate, [125I]-PYY; details: compound at 10 μM, [125I]-PYY
T10 construct: purchased Perkin Elmer Biosignal
T10 sequence (P25929 1-384): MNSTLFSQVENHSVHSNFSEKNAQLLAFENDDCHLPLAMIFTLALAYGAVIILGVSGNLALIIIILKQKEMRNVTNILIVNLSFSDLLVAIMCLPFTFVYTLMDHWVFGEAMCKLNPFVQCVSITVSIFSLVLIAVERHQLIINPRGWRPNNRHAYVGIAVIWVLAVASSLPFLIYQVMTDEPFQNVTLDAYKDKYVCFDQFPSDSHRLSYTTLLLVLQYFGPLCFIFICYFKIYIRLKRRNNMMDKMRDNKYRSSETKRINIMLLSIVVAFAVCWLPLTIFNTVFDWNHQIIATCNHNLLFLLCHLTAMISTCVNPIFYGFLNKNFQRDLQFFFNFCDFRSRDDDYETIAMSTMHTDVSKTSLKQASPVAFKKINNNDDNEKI
How it was run: as §2

Human Melanocortin (MC3) = biological target: T11, Human Melanocortin (MC3) (Homo sapiens, UniProt P41968); test: Radioligand binding, human melanocortin MC3 membranes, FlashPlate, [125I]-NDP-αMSH; details: compound at 10 μM, [125I]-NDP-αMSH
T11 construct: purchased Perkin Elmer Biosignal
How it was run: as §2

T11 sequence (P41968 whole entry): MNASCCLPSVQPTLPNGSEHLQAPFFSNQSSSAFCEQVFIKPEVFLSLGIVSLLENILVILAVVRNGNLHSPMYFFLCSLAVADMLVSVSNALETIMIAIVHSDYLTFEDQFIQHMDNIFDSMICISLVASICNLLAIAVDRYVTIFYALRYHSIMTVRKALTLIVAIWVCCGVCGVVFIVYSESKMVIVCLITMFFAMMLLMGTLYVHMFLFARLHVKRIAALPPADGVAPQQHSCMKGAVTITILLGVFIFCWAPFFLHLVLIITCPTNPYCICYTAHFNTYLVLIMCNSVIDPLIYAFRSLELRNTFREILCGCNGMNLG
T3 sequence (P32245 whole entry): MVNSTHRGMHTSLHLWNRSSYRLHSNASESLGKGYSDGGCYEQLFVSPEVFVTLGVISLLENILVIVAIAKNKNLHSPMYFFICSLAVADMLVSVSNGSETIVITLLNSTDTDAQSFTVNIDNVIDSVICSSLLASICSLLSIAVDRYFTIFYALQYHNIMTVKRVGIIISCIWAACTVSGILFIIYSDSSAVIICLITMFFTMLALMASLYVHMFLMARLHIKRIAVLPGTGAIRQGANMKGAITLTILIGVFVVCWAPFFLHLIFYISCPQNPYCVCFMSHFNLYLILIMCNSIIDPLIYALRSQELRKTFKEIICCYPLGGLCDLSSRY
T6 sequence (P33032 whole entry): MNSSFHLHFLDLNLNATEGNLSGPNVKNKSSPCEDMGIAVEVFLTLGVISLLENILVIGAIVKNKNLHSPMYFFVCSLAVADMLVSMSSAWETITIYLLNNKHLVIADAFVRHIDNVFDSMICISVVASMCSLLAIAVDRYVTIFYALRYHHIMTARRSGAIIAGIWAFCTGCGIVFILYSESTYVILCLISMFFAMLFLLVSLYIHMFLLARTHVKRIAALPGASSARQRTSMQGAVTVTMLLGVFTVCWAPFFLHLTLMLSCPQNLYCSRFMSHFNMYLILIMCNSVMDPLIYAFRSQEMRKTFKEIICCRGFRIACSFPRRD
T2 sequence (P41143 whole entry): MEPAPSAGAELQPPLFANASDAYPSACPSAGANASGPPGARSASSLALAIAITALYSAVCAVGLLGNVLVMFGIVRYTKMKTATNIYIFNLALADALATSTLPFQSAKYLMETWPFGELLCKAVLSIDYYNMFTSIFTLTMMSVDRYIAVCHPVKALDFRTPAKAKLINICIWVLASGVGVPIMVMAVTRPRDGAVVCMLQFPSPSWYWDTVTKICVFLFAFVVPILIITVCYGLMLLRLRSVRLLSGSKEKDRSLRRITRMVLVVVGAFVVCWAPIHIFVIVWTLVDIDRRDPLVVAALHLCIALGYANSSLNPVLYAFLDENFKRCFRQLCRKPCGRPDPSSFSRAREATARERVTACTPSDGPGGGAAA
T1 sequence (P41145 whole entry): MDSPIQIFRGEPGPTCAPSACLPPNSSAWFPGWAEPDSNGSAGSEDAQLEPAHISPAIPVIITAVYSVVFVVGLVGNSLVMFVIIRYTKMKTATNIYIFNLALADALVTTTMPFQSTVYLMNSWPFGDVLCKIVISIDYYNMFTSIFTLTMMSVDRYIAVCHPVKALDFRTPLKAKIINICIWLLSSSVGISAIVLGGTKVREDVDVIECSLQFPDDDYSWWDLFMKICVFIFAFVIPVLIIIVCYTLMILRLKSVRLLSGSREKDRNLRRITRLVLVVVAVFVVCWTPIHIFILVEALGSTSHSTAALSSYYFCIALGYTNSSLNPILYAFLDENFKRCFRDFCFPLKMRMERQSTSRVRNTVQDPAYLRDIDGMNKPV
T4 sequence (P35372 whole entry): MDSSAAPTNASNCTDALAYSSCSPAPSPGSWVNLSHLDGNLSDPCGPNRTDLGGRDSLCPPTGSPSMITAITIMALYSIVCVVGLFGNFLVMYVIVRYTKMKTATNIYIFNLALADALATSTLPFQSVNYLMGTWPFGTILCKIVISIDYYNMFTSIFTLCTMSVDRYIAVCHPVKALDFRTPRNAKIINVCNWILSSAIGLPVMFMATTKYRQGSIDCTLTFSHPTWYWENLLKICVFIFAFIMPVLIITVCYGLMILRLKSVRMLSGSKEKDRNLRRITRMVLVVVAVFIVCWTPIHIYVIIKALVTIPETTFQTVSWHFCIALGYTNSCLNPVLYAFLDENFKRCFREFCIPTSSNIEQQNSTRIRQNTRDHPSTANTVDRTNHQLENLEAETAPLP
T5 sequence (Q99705 whole entry): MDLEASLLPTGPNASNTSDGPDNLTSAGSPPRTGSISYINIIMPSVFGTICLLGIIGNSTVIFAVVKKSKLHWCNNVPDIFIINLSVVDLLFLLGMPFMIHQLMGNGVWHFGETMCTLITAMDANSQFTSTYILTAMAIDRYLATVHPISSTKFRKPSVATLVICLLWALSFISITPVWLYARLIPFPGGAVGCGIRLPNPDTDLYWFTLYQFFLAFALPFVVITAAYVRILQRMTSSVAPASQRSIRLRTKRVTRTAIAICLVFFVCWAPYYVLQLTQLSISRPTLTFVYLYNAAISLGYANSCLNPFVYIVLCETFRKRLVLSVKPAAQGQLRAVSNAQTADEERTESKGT
T9 sequence (P41146 whole entry): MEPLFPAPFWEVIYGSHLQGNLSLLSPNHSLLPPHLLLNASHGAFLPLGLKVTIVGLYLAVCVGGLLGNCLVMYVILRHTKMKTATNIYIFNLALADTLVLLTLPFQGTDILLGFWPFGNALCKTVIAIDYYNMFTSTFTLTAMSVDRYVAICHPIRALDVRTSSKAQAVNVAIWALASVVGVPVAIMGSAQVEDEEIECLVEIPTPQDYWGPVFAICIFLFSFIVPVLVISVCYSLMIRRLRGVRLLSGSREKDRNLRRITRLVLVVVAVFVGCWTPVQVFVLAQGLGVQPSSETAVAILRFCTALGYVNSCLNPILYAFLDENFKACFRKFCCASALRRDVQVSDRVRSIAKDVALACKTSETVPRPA
T8 sequence (P25103 whole entry): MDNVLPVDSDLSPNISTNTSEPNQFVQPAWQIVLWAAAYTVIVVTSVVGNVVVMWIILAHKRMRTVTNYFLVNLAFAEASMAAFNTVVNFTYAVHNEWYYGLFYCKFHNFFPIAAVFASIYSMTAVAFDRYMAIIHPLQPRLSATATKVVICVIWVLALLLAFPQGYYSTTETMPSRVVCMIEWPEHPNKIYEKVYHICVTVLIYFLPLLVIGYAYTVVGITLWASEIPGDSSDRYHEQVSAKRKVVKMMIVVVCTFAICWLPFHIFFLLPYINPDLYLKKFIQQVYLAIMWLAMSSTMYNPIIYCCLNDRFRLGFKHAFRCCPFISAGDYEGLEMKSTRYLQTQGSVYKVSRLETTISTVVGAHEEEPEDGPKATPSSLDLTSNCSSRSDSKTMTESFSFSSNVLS

COC[C@H]1OC(OCc2ccc(-c3ccccc3)cc2)[C@H](NC(=O)CCCNC(=N)N)[C@@H](OCc2ccc(-c3ccccc3)cc2)[C@@H]1O (single isomer, unassigned) [compound 336]
A2: inhibition of radioligand binding, human κ-opioid (KOP) (Human κ-Opioid (KOP); 10 µM): − (“−” indicates less than 50% inhibition at 10 μM) | A1: inhibition of radioligand binding, human δ-opioid (DOP) (Human δ-opioid (DOP); 10 µM): − (“−” indicates less than 50% inhibition at 10 μM) | A4: inhibition of radioligand binding, human melanocortin (MC4) (Human Melanocortin (MC4)): + (“+” indicates greater than 50% inhibition at 10 μM) | A7: inhibition of radioligand binding, human μ-opioid (MOP) (Human μ-opioid (MOP); 10 µM): − (“−” indicates less than 50% inhibition at 10 μM) | A6: inhibition of radioligand binding, human melanin-concentrating hormone (MCH1) ([1]; [125I]-S36057): + (“+” indicates greater than 50% inhibition at 10 μM) | A5: inhibition of radioligand binding, human melanocortin (MC5) (Human melanocortin (MC5)): + (“+” indicates greater than 50% inhibition at 10 μM) | A11: inhibition of radioligand binding, mouse urotensin (mUR2) (Mouse urotensin (mUR2)): − (“−” indicates less than 50% inhibition at 10 μM) | A8: inhibition of radioligand binding, human neurokinin (NK1) (Human neurokinin (NK1)): + (“+” indicates greater than 50% inhibition at 10 μM) | A10: inhibition of radioligand binding, human opioid (ORL1) (Human opioid (ORL1)): − (“−” indicates less than 50% inhibition at 10 μM) | A9: inhibition of radioligand binding, human neuropeptide Y (NPY-Y1) [2]: − (“−” indicates less than 50% inhibition at 10 μM) | A3: inhibition of radioligand binding, human melanocortin (MC3) (Human Melanocortin (MC3); 10 µM): − (“−” indicates less than 50% inhibition at 10 μM)

COCC1OC(OCc2ccc3ccccc3c2)C(NC(=O)CCCN)C(OCc2ccc(-c3ccccc3)cc2)C1O (stereo not shown) [compound 245]
A2: inhibition of radioligand binding (Human κ-Opioid (KOP); filtration): − (“−” indicates less than 50% inhibition at 10 μM) | A1: inhibition of radioligand binding (Human δ-opioid (DOP); FlashPlate): − (“−” indicates less than 50% inhibition at 10 μM) | A4: inhibition of radioligand binding (Human Melanocortin (MC4); FlashPlate): − (“−” indicates less than 50% inhibition at 10 μM) | A7: inhibition of radioligand binding (Human μ-opioid (MOP); FlashPlate): − (“−” indicates less than 50% inhibition at 10 μM) | A6: inhibition of radioligand binding ([1]; [125I]-S36057, FlashPlate): − (“−” indicates less than 50% inhibition at 10 μM) | A5: inhibition of radioligand binding (Human melanocortin (MC5); FlashPlate): − (“−” indicates less than 50% inhibition at 10 μM) | A11: inhibition of radioligand binding (Mouse urotensin (mUR2); FlashPlate): − (“−” indicates less than 50% inhibition at 10 μM) | A8: inhibition of radioligand binding (Human neurokinin (NK1); filtration): + (“+” indicates greater than 50% inhibition at 10 μM) | A10: inhibition of radioligand binding (Human opioid (ORL1); FlashPlate): − (“−” indicates less than 50% inhibition at 10 μM) | A9: inhibition of radioligand binding ([2]; FlashPlate): − (“−” indicates less than 50% inhibition at 10 μM) | A3: inhibition of radioligand binding (Human Melanocortin (MC3); FlashPlate): − (“−” indicates less than 50% inhibition at 10 μM)
